According to patent US9096875B2 (Montana State University, priority 2010, dated 2015):
Where “and” joins values, the source holds several entries; their conditions need not be identical. Identical values can stand only once. Like-named read-outs stand apart in the source and are kept apart here.

Tests used:
Scenedesmus WC-1 = details: for total Nile Red fluorescence reached: began to increase at 5 d; for Dry Weight (DCW) / Final Cell Density / Final Total Nile Red Fluorescence / Final Specific Nile Red Intensity Cell-1: WC-1, 5% CO2 → Air; for Dry Weight (DCW) / Final Cell Density / Final Total Nile Red Fluorescence: n = 3; for Final Specific Nile Red Intensity Cell-1: fluorescence signal/cell density × 10,000
Description: Cultures were grown with 5% CO2 until nitrate depletion was imminent.
(§1) Scenedesmus sp. strain WC-1 (WC-1) was isolated and confirmed unialgal as previously described (Gardner et al. 2010). WC-1 was cultured on Bold's basal medium with pH adjusted to 8.7 with KOH previous to autoclaving (Nichols and Bold 1965). Phaeodactylum tricornutum strain Pt-1 (CCMP 2561) (Pt-1) was acquired from The Provasoli-Guillard National Center for Culture of Marine Phytoplankton (CCMP). Pt-1 was cultured on ASP II medium and 50 mM Tris buffer (Sigma-Aldrich, St. Louis Mo.), pKa 7.8 (Provasoli et al. 1957). Both organisms were checked for bacterial contamination by inoculation into respective medium supplemented with 0.05% yeast extract and 0.05% glucose and incubated in the dark. Experiments were conducted in triplicate in batch culture using 70 mm×500 mm glass tubes containing 1 L media submersed in a water bath to control temperature. Rubber stoppers, containing ports for aeration and sampling, were used to seal the tubes. Temperature was maintained at 24° C. and 20° C., ±1° C., for WC-1 and Pt-1, respectively. Light (400 μmoles m^−2s^−1) was maintained on a 14:10 light:dark cycle by a T5 light bank. Aeration (400 mL min^−1) was supplied by humidified compressed air with and without 5% CO2 (v/v) and controlled using individual rotameters on each bioreactor (Cole-Parmer, Vernon Hills Ill.).
(§2) Cell concentrations were determined using an optical hemacytometer with a minimum of 400 cells counted for statistical reliability. Light micrographs and Nile Red fluorescence images were taken using a transmitted/epifluorescence light microscope (Nikon Eclipse E800) with an Infinity 2 color camera.
Medium pH was measured on samples using a standard bench top pH meter. Nitrate in Bolds basal medium was measured by ion chromatography (IC) using an IonPac AS9-HC Anion-Exchange Column (Dionex) with a 9.0 mM sodium carbonate buffer set at a flow rate of 1.0 mL min^−1. Detection was performed using a CD20 conductivity detector (Dionex) at 21° C., and IC data was analyzed on Dionex PeakNet 5.2 software. Nitrate in ASP II medium was measured using a colorimetric assay based on the reaction of Czechrome NAS reagent (Polysciences Inc., Warrington Pa.) with nitrate ions. In brief, 1 mL of culture was centrifuged at 16,000 g for 15 minutes. The supernatant liquid was then collected for nitrate quantification. 0.1 mL of sample was gently mixed with 1 mL of reagent solution prepared as described by the manufacturer (Polysciences Inc., Warrington Pa.), and incubated 20 minutes at room temperature. The absorbance was read at 570 nm, and nitrate concentration of the sample was calculated using a nitrate standard curve.
(§3) Cellular TAG accumulation was estimated using the Nile Red (9-diethylamino-5H-benzo(α)phenoxazine-5-one) (Sigma-Aldrich, St. Louis Mo.) fluorescence method (Cooksey et al. 1987). TAG accumulation over time was measured by removing 1 mL aliquots from cultures and assayed directly with Nile Red (4 μL from […] in acetone) or by diluting with 4 mL ultrapure H2O or salt water for WC-1 and Pt-1, respectively, before assaying directly with Nile Red (20 μL from […] in acetone). To maintain linearity of the Nile Red assay, dilution was required when population counts exceeded 1×10^7 cell mL^−1 and 3×10^6 cell mL^−1 for WC-1 and Pt-1, respectively. Total Nile Red fluorescence was quantified on a microplate reader (Bio-Tek, Winooski, Vt.) utilizing 480/580 nm excitation/emission filters.

[1] = system: Phaeodactylum tricornutum Pt-1
Description: The diatom was cultured in ASP II medium, with or without adding NaHCO3 under 14:10 L:D cycle at […] A non-limiting example of ASP II medium is shown below:
as §1, §2
as §3, with “filters. […] To minimize fluorescence spillover, black walled 96-well plates were loaded with 200 μL of sample. Unstained samples were used for background medium and cellular autofluorescence correction. […]” for “filters.”

diatom RGd-1 = details: bicarbonate spike at 7.4 d, within 2-3 d of the spike, ambient air, 14:10 light-dark
From the text: RGd-1 was obtained from Yellowstone National Park under Permit No. YELL-2009-SCI-5480. These cultures were illuminated with 14:10 light-dark cycling with ambient air aeration.

Coelastrella sp. PC-3 = system: Coelastrella sp. PC-3
Description: The addition of 50 mM NaHCO3 prior to nitrate depletion was tested on Coelastrella sp. PC-3.

Chlorophyta sp. EN-2 = details: 50 mM NaHCO3 prior to nitrate depletion
Description: The addition of 50 mM NaHCO3 prior to nitrate depletion was tested on Chlorophyta sp. EN-2.

Kirchneriella sp. 92 = details: 50 mM NaHCO3 prior to nitrate depletion
Description: (§4) The addition of 50 mM NaHCO3 prior to nitrate depletion was tested on Chlorophytes Scenedesmus sp.

Scenedesmus sp. 131 = details: 50 mM NaHCO3 prior to nitrate depletion
Description: as §4

[2] = HCO3 addition at 3.7 d (pre-nitrate depletion), harvest 8.0 d
[3] = HCO3 addition at 6.4 d (post-nitrate depletion), harvest 12.0 d

## O=C([O-])[O-].[Na+].[Na+] [Na2CO3, sodium carbonate, reference compound]
Scenedesmus WC-1; all cases of Na2CO3 addition (individual, mix, buffered), near nitrate depletion
  TAG accumulation: did not accumulate elevated levels of TAG

## O=C([O-])O.[Na+] [bicarbonate, sodium bicarbonate]
Scenedesmus WC-1; 25 mM NaHCO3 with 25 mM CAPS buffer (pKa 10.3), near nitrate depletion
  TAG induction: almost identical to the unbuffered additions
Scenedesmus WC-1; 50 mM bicarbonate added at 3.7 d (pre-nitrate depletion)
  period of TAG accumulation: 5 to 8 days
Scenedesmus WC-1; 50 mM bicarbonate added at 6.4 d, post-nitrate depletion
  Nile Red fluorescence after decrease to baseline: 450 units
Scenedesmus WC-1; 50 mM bicarbonate added post-nitrate depletion (stationary phase), aeration adjusted to ambient air, listed as NaHCO3
  Nile Red fluorescence / TAG accumulation response: complete loss of cellular TAG accumulation
Scenedesmus WC-1; 25 and 50 mM added to unbuffered medium near nitrate depletion (FIG. 15)
  TAG accumulation: induce similar levels of TAG
Scenedesmus WC-1; Example 4: 50 mM bicarbonate spike at 3.7 d, value 4 days later
  total Nile Red fluorescence reached: 20,000 units
Scenedesmus WC-1; Example 5: 50 mM bicarbonate addition at 3.7 d, value 3 days later
  total Nile Red fluorescence reached: 33,500 units
Scenedesmus WC-1; [2]
  Dry Weight (DCW): 1.1 ± 0.1 g/L
  Final Cell Density: 1.34 ± 0.15 ×10^7 cells mL^−1
  Final Total Nile Red Fluorescence: 33.5 ± 6.3 ×10^3 units
  Final Specific Nile Red Intensity Cell-1: 24.8 ± 2.2
Scenedesmus WC-1; [3]
  Dry Weight (DCW): 2.1 ± 0.0 g/L
  Final Cell Density: 5.18 ± 0.41 ×10^7 cells mL^−1
  Final Total Nile Red Fluorescence: 0.3 ± 0.3 ×10^3 units
  Final Specific Nile Red Intensity Cell-1: 0.1 ± 0.1
Scenedesmus WC-1; addition just prior to medium nitrate depletion
  minimal concentration range needed to stop cellular replication: 10 to 15 mM
Scenedesmus WC-1; bicarbonate supplemented culture, instead of 16-18 d in ambient aerated culture
  culture time at which maximum total Nile Red fluorescence was reached: 8 days
Scenedesmus WC-1; less than 10 mM NaHCO3 addition
  cell morphology by microscope: did not indicate cell cycle halting characteristics
Scenedesmus WC-1; when bicarbonate was added (50 mM, near nitrate depletion), versus ambient aerated culture
  rate of TAG accumulation: twice as fast
Scenedesmus WC-1; with bicarbonate spike, compared with 8-10 d under ambient air aeration with no spike
  time to reach maximum Nile Red fluorescence signal: 3 to 4 days
[1]
  Dry Weight (DCW): 0.1 ± 0.0 g/L
  Final Cell Density: 0.65 ± 0.01 ×10^7 cells mL^−1 and 1.02 ± 0.05 ×10^7 cells mL^−1
  effect on cell replication: cell replication was not inhibited
  lipid production (Nile Red fluorescence): stimulated more lipid production
Diatom RGd-1
  total Nile Red fluorescence increase over the no spike control: 10 fold
Coelastrella sp. PC-3
  TAG accumulation measured with Nile Red fluorescence: no observable increase in TAG accumulation
  effect on cellular replication: cellular replication ceased
Chlorophyta sp. EN-2
  TAG accumulation rate: observable increase
  TAG per cell level (Nile Red specific fluorescence): observable increase
Kirchneriella sp. 92
  TAG accumulation rate: decrease in TAG accumulation rate
Scenedesmus sp. 131
  TAG accumulation rate: increase in TAG accumulation rate
